Measurements taken from patent publication US20260216347A1, “Substituted Imidazo-Based Compounds as Ligand Directed Degraders of IRAK3” (Celgene Corporation, priority 2022, published 2026).

Target: T1, IRAK3 (Homo sapiens, UniProt Q9Y616)
T1 construct: IRAK Endogenous HTRF Degradation Assay; endogenous in cells
T1 sequence (Q9Y616 1-596): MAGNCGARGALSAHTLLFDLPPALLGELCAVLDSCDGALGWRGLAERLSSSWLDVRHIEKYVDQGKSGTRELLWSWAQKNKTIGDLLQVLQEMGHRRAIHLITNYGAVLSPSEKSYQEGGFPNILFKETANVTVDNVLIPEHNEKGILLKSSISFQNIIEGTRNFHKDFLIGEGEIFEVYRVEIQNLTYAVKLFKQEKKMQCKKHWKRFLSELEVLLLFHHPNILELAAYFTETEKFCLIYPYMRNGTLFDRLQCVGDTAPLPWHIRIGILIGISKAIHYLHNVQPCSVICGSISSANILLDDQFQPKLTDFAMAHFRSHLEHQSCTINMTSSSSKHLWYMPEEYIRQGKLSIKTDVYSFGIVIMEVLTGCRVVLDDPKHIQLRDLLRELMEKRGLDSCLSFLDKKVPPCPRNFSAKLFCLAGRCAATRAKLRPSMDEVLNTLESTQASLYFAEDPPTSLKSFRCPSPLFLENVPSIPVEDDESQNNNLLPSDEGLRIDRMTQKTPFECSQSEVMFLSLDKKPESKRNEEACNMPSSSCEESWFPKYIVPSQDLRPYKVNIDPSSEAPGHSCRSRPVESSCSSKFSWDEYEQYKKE
Experiment: IRAK3 biochemical binding assay (LanthaScreen Eu Kinase Binding, TR-FRET)
Protocol: Example B3. IRAK3 Biochemical Binding Assay
The LanthaScreen® Eu Kinase Binding assay was performed as described by the vendor (ThermoFisher Scientific Waltham, MA). Briefly, 100× solutions of compound were prepared in DMSO via serial dilution of the 10 mM stock solution in a 384-well reagent plate using 3-fold intervals to achieve final concentrations. 1 μL of the compound dilution series were added to the corresponding wells of a 384-well reagent plate containing 32.3 μL of 1× buffer (50 mM HEPES pH 7.4, […], 1 mM EGTA, 0.01% Brij-35). 5 μL of the buffer diluted compounds were transferred to the corresponding wells of a 384-well assay plate. 5 μL of 3× tracer was transferred to each well of the assay plate for a final tracer concentration of 10 nM. Finally, 5 μL of the 3×Eu-Anti-GST and IRAK3 mix was transferred to each well for a final concentration of 2 nM and 10 nM respectively. Reactions were allowed to incubate for 1 hour at room temperature. TR-FRET signal of the interaction (λex340/λem 665/λem 615) was read at room temperature with a delay time of 100 ρs and an integration time of 200 ρs using an Envision plate reader. Background corrected emission signal ratios at each compound concentration were used to calculate percentage of inhibition (% Inhibition). Plots of % Inhibition versus inhibitor concentrations were fit according to a dose-response equation (Eq. 1) to generate IC50 and Hill slope values using Dotmatics software (Dotmatics, Bishops Stortford, Hertfordshire, England).
Using these assays, IC50, Dmax, EC50, and DC50 values of the following compounds were determined. Dmax is defined as the maximum percent degradation achieved and DC50 is the concentration at which 50% degradation is achieved.

IC50 [nM] | Compound
380 | CS(=O)(=O)c1cccc(-c2cnc(Nc3cnn(C4CCN(CCN5CCN(c6ccc(C7CCC(=O)NC7=O)cc6)CC5)CC4)c3)c3nccn23)c1 (centres unmarked) [Compound 86, 3-(4-(4-(2-(4-(4-((5-(3-(methylsulfonyl)phenyl)imidazo[1,2-a]pyrazin-8-yl)amino)-1H-pyrazol-1-yl)piperidin-1-yl)ethyl)piperazin-1-yl)phenyl) piperidine-2,6-dione]
4 | COc1ccc(-c2cnc(Nc3cnn(C4CCN(CCN5CCN(c6ccc(C7CCC(=O)NC7=O)cc6)CC5)CC4)c3)c3nccn23)cc1 (centres unmarked) [Compound 87, 3-(4-(4-(2-(4-(4-((5-(4-methoxyphenyl)imidazo[1,2-a]pyrazin-8-yl)amino)-1H-pyrazol-1-yl)piperidin-1-yl)ethyl)piperazin-1-yl)phenyl) piperidine-2,6-dione]
16 | O=C1CCC(c2ccc(N3CCN(CCN4CCC(n5cc(Nc6ncc(-c7ccccc7)n7ccnc67)cn5)CC4)CC3)cc2)C(=O)N1 (centres unmarked) [Compound 88, 3-(4-(4-(2-(4-(4-((5-phenylimidazo[1,2-a]pyrazin-8-yl)amino)-1H-pyrazol-1-yl)piperidin-1-yl)ethyl)piperazin-1-yl)phenyl) piperidine-2,6-dione]
15 | Cc1cc(-c2cnc(Nc3cnn([C@H]4CC[C@H](CCN5CCC(c6ccc(C7CCC(=O)NC7=O)cc6)CC5)CC4)c3)c3nccn23)c(F)cc1F (stereo partly drawn) [Compound 95, 3-(4-(1-(2-((trans)-4-(4-((5-(2,4-difluoro-5-methylphenyl)imidazo[1,2-a]pyrazin-8-yl)amino)-1H-pyrazol-1-yl)cyclohexyl)ethyl)piperidin-4-yl)phenyl) piperidine-2,6-dione]
1.3 | Cc1cc(-c2cnc(Nc3cnn(C4CCN(CCN5CC6(C5)CN(c5ccc(C7CCC(=O)NC7=O)cc5)C6)CC4)c3)c3nccn23)c(F)cc1F (centres unmarked) [Compound 97, 3-(4-(6-(2-(4-(4-((5-(2,4-difluoro-5-methylphenyl)imdazo [1,2-a]pyrazin-8-yl)amino)-1H-pyrazol-1-yl)piperidin-1-yl)ethyl)-2,6-diazaspiro[3.3]heptan-2-yl)phenyl) piperidine-2,6-dione]
0.08 | CN1CCOc2cc(F)c(-c3cnc(Nc4cnn(C5CCN(CCN6CCN(c7ccc(C8CCC(=O)NC8=O)cc7)CC6)CC5)c4)c4nccn34)cc21 (centres unmarked) [Compound 98, 3-(4-(4-(2-(4-(4-((5-(7-fluoro-4-methyl-3,4-dihydro-2H-benzo[b][1,4]oxazin-6-yl)imidazo[1,2-a]pyrazin-8-yl)amino)-1H-pyrazol-1-yl)piperidin-1-yl)ethyl)piperazin-1-yl)phenyl) piperidine-2,6-dione]
0.44 | Cc1cc(-c2cnc(Nc3cnn([C@H]4C[C@H](CN5CCN(c6ccc(C7CCC(=O)NC7=O)cc6)CC5)C4)c3)c3nccn23)c(F)cc1F (some centres unmarked) [Compound 99]
4 | O=C1CCC(c2ccc(N3CCN(CC[C@H]4CC[C@H](n5cc(Nc6ncc(C78CCCC7C8)n7ccnc67)cn5)CC4)CC3)cc2)C(=O)N1 (some centres unmarked) [Compound 100]
7.6 | Cc1cc(-c2cnc(Nc3cnn([C@H]4CC[C@@H](CCN5CC6(C5)CN(c5ccc(C7CCC(=O)NC7=O)cc5)C6)CC4)c3)c3nccn23)c(F)cc1F (some centres unmarked) [Compound 101]
0.8 | Cc1cc(-c2cnc(Nc3cnn(C4CCN(CCN5CCN(c6ccc(-n7ccc(=O)[nH]c7=O)cc6)CC5)CC4)c3)c3nccn23)c(F)cc1F [Compound 102, 1-(4-(4-(2-(4-(4-((5-(2,4-difluoro-5-methylphenyl)imdazo [1,2-a]pyrazin-8-yl)amino)-1H-pyrazol-1-yl)piperidin-1-yl)ethyl)piperazin-1-yl)phenyl)pyrimidine-2,4(1H,3H)-dione]

Compound | IC50 [nM]
Cc1cc(-c2cnc(Nc3cnn([C@H]4C[C@@H](CCN5CCN(c6ccc(C7CCC(=O)NC7=O)cc6)CC5)C4)c3)c3nccn23)c(F)cc1F (stereo partly drawn) [Compound 96, 3-(4-(4-(2-((cis)-3-(4-((5-(2,4-difluoro-5-methylphenyl)imidazo[1,2-a]pyrazin-8-yl)amino)-1H-pyrazol-1-yl)cyclobutyl)ethyl)piperazin-1-yl)phenyl)piperidine-2,6-dione] | 0.22
